The record followed here is US9119821B2, “Use of methionine sulfoximine to treat acute liver failure and other diseases caused by an inflammatory cytokine response” (priority 2010, dated 2015).

Assay [1] deals with CD1 mice injected with Jo2 antibody. As to conditions: mouse, in vivo. How it is done:
Animals were divided into two groups. Group one animals consisted of both male and female mice injected with LPS and D-GalN to induce hepatic failure. Survival was monitored post LPS/D-GalN administration and the time of injection was considered to be zero hour (t=0). Group two animals consisted of mice injected with MSO three hours prior to LPS and D-GalN administration. […] MSO (50 mg/kg body weight, Sigma #M5379) was also prepared in saline and administered IP. For analysis of the effect of MSO treatment on the cell death pathway activated by the Fas ligand, mice were pre-treated with MSO as described above, and at time zero were injected with Jo2 antibody ([…]).
Animals were monitored continuously post LPS/D-GalN or Jo2 administration. […] The time of death was recorded as hours after LPS/D-GalN injection. Fisher's exact test was used to determine two-tailed p values for the statistical between the treated and untreated groups.

The next assay deals with peritoneal macrophages. As to conditions: for TNF-α in culture supernatant, average ELISA value: four hours after LPS, LPS control 527. The method, then: Peritoneal macrophages were isolated from the abdomens of CD-1 mice, and 2×10^4 cells were added to each well of a 6-well cell culture plate. The cells were incubated in RPMI—1640 (with 2.05 mM glutamine) with 5% fetal calf serum and 1% penicillin/streptomycin (all solutions were from Hyclone) for 4 hours. The medium was then changed to remove any non-adherent cells, and the cells were again incubated in a 5% CO2 incubator for 16 hours. In each plate, one well was a negative control (no treatment), one well was a MSO control (9 mM) and one well was a LPS control (1 μg/ml LPS). The other three wells were treated with 9 mM MSO and 1 μg/ml LPS. One well was treated with MSO for 3 hours, and LPS was then added. In another well, LPS and MSO were added at the same time. Time of LPS addition was considered time zero. Four hours after LPS addition the cell culture medium was collected and 50 μL of the medium was mixed with 50 μl of blocking buffer and used for the TNF-α ELISA assay.
Macrophages coordinate the early phases of LPS-induced inflammatory response, through the synthesis of TNF-α and other cytokines. In vitro experiments were conducted to directly test if MSO inhibits TNF-α production on LPS-stimulated macrophages obtained from mouse peritoneum. Macrophages were triggered with LPS with or without MSO, wherein the MSO was added either three hours before, one hour after, or at the same time as LPS. Four hours after LPS addition, TNF-α in the culture supernatant was quantitated by ELISA, as described in Methods.

In assay [2] the target is γ-glutamylcysteine synthetase (GGCS) (Mus musculus, UniProt P97494). Particulars: liver extracts from LPS/D-GalN treated mice; 50 mg/kg; data not shown. How it is done: (§1) Tissue and plasma were collected from male mice, which were divided into two groups. One group was injected with saline three hours prior to LPS/D-GalN injections. The second group was given MSO three hours prior to being injected with LPS/D-GalN. Control mice (t=0) were treated with MSO or saline for 3 hours and then euthanized (not exposed to LPS/D-GalN). After LPS/D-GalN injection at time zero, tissue and plasma samples were collected at one-hour time intervals from 1 to 5 hours.
Sequence of γ-glutamylcysteine synthetase (GGCS) (P97494 whole entry): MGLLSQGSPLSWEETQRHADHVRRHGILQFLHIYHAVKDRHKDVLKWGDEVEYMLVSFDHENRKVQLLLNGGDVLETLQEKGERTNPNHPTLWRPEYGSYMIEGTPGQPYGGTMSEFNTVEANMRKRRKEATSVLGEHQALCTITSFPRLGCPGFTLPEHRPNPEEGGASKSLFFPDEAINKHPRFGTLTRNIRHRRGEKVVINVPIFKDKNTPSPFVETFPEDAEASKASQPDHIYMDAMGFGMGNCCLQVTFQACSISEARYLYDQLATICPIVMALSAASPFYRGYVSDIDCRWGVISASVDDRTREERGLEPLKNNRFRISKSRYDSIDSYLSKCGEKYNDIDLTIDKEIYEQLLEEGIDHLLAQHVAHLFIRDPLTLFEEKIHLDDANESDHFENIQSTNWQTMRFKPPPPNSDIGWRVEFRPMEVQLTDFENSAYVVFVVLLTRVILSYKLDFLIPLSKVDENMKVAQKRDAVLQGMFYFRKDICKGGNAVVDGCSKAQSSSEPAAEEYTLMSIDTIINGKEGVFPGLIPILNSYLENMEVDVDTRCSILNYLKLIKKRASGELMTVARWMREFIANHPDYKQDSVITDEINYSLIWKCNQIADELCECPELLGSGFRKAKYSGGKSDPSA
Sequence of γ-glutamylcysteine synthetase (GGCS) (O09172 whole entry partner): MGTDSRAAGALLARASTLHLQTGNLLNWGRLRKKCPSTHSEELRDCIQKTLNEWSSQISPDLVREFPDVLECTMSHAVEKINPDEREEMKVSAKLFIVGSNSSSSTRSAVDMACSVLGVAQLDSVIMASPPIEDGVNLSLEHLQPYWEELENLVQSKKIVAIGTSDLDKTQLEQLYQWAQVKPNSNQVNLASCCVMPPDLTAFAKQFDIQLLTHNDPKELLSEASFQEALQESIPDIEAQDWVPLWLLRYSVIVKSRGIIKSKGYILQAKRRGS
To analyze enzyme activities liver homogenates were prepared from liver tissue excised and immediately homogenized in ice-cold buffer consisting of 250 mM sucrose, 10 mM Tris and 0.1 mM EGTA with protease inhibitor cocktail (Sigma #P8340). The homogenized tissue was centrifuged at 2375×g for 5 min. […]
Glutamine synthetase was assayed as described by Meister, A. Glutamine synthetase from mammalian tissues. […] The reaction with the substrates glutamine and hydroxylamine was stopped using ferric chloride stop solution (0.37 M FeCl3, 0.67 M HCl, 0.20 M TCA) and the colorimetric product formed—γ-glutamyl hydroxamate—was measured at 535 nm. The absorbance values were converted to activities by comparison to a standard curve of pure glutamyl hydroxamate (a generous gift from Arthur J. Cooper, Department of Biochemistry and Molecular Biology, New York Medical College).

For another assay, the system named is TNF-α.
Source text: (§2) FIG. 6A, FIG. 6B, and FIG. 6C illustrate ELISA quantitation cytokine levels in plasma from LPS/D-GalN treated mice. The time zero values show the levels of each cytokine in negative control mice, not treated with LPS/D-GalN but injected with either saline (n=7) or MSO (n=7) three hours prior to be killed. […] For each cytokine, open circles represent cytokine levels in plasma isolated from mice pretreated with saline, and open diamonds represent cytokine levels in plasma isolated from mice pretreated with MSO prior to LPS/D-GalN treatment. FIG. 6A illustrates TNF-α levels. FIG. 6B illustrates IFN-γ levels. FIG. 6C illustrates IL-6 levels; and
as §1
(§3) Plasma was obtained by transferring blood to plasma separator tubes containing lithium heparin (BD Microtainer tubes). Plasma samples were immediately frozen on dry ice and stored at −80° C.
(§4) TNF-α, IFN-γ, and IL-6 ELISA kits were obtained from eBioscience, and experiments were performed using the manufacturer's guidelines for 96-well plate experiments. One hundred microliters of plasma was used per well.

The subject of the next assay is IL-6. As to conditions: 3 hours after LPS/D-GalN; without MSO peak 401±14 at two hours.
Source text: as §2, §1, §3, §4

The subject of another assay is IFN-γ.
Source text: as §2, §1, §3, §4

The conditions of assay [3]: i.p. injection of 50 mg/kg.
The next assay relates to STAT3. Particulars: liver homogenates; both LPS/D-GalN treated and untreated mice. The method, then: (§5) Immunoblots of cleaved caspase-3 and phospho-STAT proteins: Liver homogenates were prepared from male mice five hours after IP administration of LPS/D-GalN. […] Glyceraldehyde-3-phosphate dehydrogenase (GAPDH—Chemicon, Milano, Italy) was used as a loading control).
In the next assay the test system is caspase-3. Particulars: mouse, in vivo. The method, then: as §5
The test system of another assay is STAT1. As to conditions: liver homogenates, five hours after LPS/D-GalN. How it is done: as §5
A further assay has as its system MLP 29 cells. Briefly: Flow cytometry of apoptosis induced by TNF-α plus actinomycin D. It is filed as cell-based, mouse.

Like-named read-outs stand apart in the source and are kept apart here.

Description for MLP 29 cells: Output of multiparametric FACS analyses. Mouse liver progenitor cells, MLP 29, are incubated for one hour with either no addition (first lane, FIG. 3C(a)), 9 mM MSO (second lane, FIG. 3C(b)), or 9 mM BSO (third lane, FIG. 3C(c)), then exposed for 10 hours to either no addition—(BAS, first column), TNF-α plus actinomycin D (second column), or actinomycin D alone (third column). Viable cells (V) are delimited by the quadrant. Apoptotic cells display mitochondrial depolarization (reduced TMRM staining) and/or expose phosphatidylserine on their surface (increased Annexin V-FITC staining). Propidium iodide-positive, i.e. dead cells (PI), are evaluated on a PI vs TMRM diagram (not shown); these cells are excluded from the reported plots, but the percentage of propidium iodide positive (i.e. dead) cells is shown in each box (PI), as is the percentage of viable cells (V);
Samples were analyzed on a FACSCalibur flow cytometer (Becton Dickinson, San Diego, Calif.). Data acquisition was performed using CellQuest software and data analysis with WinMD1 software. Each experiment was repeated at least four times.

For `CS(=N)(=O)CC[C@H](N)C(=O)O` (some centres unmarked) [MSO, methionine sulfoximine], the “effect on survival after Fas pathway induction” value in assay [1] is on record as “no effect on survival”. The “TNF-α in culture supernatant, average ELISA value” in the assay with peritoneal macrophages (9 mM MSO added at the same time as LPS (1 μg/ml)) amounted to 442 pg/50 μL; in the assay on peritoneal macrophages (9 mM MSO added one hour after LPS (1 μg/ml)), 430 pg/50 μL; with peritoneal macrophages (9 mM MSO added three hours before LPS (1 μg/ml), 2 mM glutamine), 393 pg/50 μL. In the assay on peritoneal macrophages (9 mM MSO, depending upon the time of addition), the “average reductions in TNF-α” value was 16-25%. The “GGCS activity versus saline pre-treated mice” value in [2] was “same GGCS activities as extracts from mice pre-treated with saline”. In the assay on TNF-α (1 to 5 hours after LPS/D-GalN), the “plasma TNF-α level throughout the time course” value was < 200 pg/mL. For the same compound, the “plasma TNF-α level, peak, mean ± SEM” value in the assay on TNF-α (1 hour after LPS/D-GalN, saline pretreated 590±91, p<0.001) came out at 112 ± 35 pg/mL. Also, the “plasma TNF-α level in control mice” value in the assay with TNF-α (t=0, injected three hours previously, not exposed to LPS/D-GalN, n=7) is on record as “not detectable”. Moreover, the “plasma IL-6 level, peak, mean ± SEM” value in the assay with IL-6 is 325 ± 27 pg/mL. In addition, the “plasma IFN-γ level” value with IFN-γ (1 hour after LPS/D-GalN, without MSO 0.84±0.25) is 0.19 ± 0.05 pg/mL; in the assay with IFN-γ (4 hours after LPS/D-GalN, without MSO 41±11, p 0.01), 5.0 ± 3.0 pg/mL. Besides, in [3], the “lowering of plasma glutamine concentrations” value is “about 50%”. In the assay with STAT3, the “phosphorylated STAT3” value is on record as “decreased”. Also, the caspase-3 activation result in the assay with caspase-3 is reported as “completely prevented”. Moreover, the “increase in STAT1 activation by LPS/D-GalN” value in the assay with STAT1 is given as “eliminated”. The “rescue of cells from apoptosis induced by TNF-α” value in the assay on MLP 29 cells is on record as “neither MSO nor BSO could rescue cells”.
